This passage reports EC50 and CC50 results from patent US5247119A, “Phenylacetonitrilehydroxyalkylaminoalkyl-ortho-substituted aryl compounds as immunosuppressives” (G. D. Searle & Co., priority 1992, dated 1993).

The structures appear in SMILES notation.

What all share (assay type): cell-based, female Balb/c mice
For data set [1], the system named is conA-stimulated T cell proliferation (spleen cells). The data set can be described thus: Assay A: Suppression of Murine Mitogen-Stimulated Proliferation. Conditions: conA 1 ug/ml, 3 days culture, MTT readout, n = 2. An excerpt: Assay A: Suppression of Murine Mitogen-Stimulated Proliferation
It is known that lymphocyte activation can be polyclonally stimulated by plant lectins and other mitogenic substances that induce blast transformation and mitosis. The plant lectin concanavalin A (conA) preferentially induces activation and proliferation of T lymphocytes. Exposure of T cells to conA results in polyclonal T cell activation, and this response can be used to determine the in vitro index of immunomodulatory effects of test compounds on pan-T cell activation. Spleen cells were harvested aseptically from female Balb/c mice, and cells were extruded by compression in phosphate buffered saline (pH 7.0). […] The remaining cells were pelleted, resuspended in medium, filtered through a cotton plug to remove debris, and the leukocytes were then counted. […] Inhibition of conA-stimulated T cell proliferation was measured using a colorimetric indicator of cell growth and proliferation, MTT [3-(4,5-dimethylthiazol-2-yl)-2 diphenyltetrazolium bromide; 100 μl of a 1 mg/ml solution per well, SIGMA] […] Light absorbance was measured at a test wavelength of 570 nm and a reference wavelength of 650 nm using a spectrophotometer. […]

Data set [2] is described as follows: in vitro. The settings on record: spleen cell leukocytes. As to the method:
(§1) Measurement of drug-induced cellular cytotoxicity was determined after 48 hours of cell culture with and without conA and with and without test compound or vehicle control. All cell preparations and assay conditions were identical to those described in Assay A. A fluorescence based assay was used to measure cell viability using the carboxyfluorescein derivative 2'-7'-biscarboxyethyl-5 (6)-carboxyfluorecein (BCECF) as a vital dye [Leeder, J. S., Dosch, H. M., Harper, P. A., Lam, P. and S. P. Spielberg, 1989. Anal. Biochem. 177, 364-372]. The membrane permeant, nonfluorescent ester derivitive, BCECF-AM (100 μl of a 2 ug/ml solution in phosphate buffered saline, pH 7.0, Molecular Probes, Eugene, OR) was added to each cell culture and incubated at 37° C. for 30 min. […] The cells were washed and concentrated on the well membrane under low vacuum, and cell associated fluorescence was measured by front surface fluorometry (485/535 nM) in the Screen Machine (Baxter) using an automated protocol. Probit analysis was used to determine viability as a percentage of relative fluorescence units (RFU) compared to control (cells and medium). The dose of test compound that induced at least 50% cellular toxicity, i.e., a 50% reduction in RFU compared to unstimulated control cells, was recorded.

In data set [3] the test system is spleen cell leukocytes (cell viability). The data set can be described thus: in vitro. The settings on record: 48 h. Here is the method:
as §1

Usually EC50 stands for the concentration needed to bring the measured effect to its halfway point. For orientation: CC50 means the concentration that lowers cell viability or growth by half. A high value points to better tolerance by the cells. With `COc1ccc(CCN(C)CC(O)CC(C#N)(c2ccc(OC)c(OC)c2)C(C)C)cc1OC` (racemic) [Example 1-A, α-[3-[[2-(3,4-dimethoxyphenyl)ethyl]methylamino]-2-hydroxypropyl]-3,4-dimethoxy-α-(1-methylethyl)benzeneacetonitrile], the EC50 in data set [1] (Mus musculus, T-cell, 72 h) was determined as 12.9 ± 5.75 µM. In addition, the CC50 at 48 h in data set [2] was determined as 60 µM.

On to `COc1ccc(CCN(C)CC(O)CC(C#N)(c2ccc(OC)c(OC)c2)C(C)C)cc1OC` (racemic) [Example 1-B, α-[3-[[2-(3,4-dimethoxyphenyl)ethyl]methylamino]-2-hydroxypropyl]-3,4-dimethoxy-α-(1-methylethyl)benzeneacetonitrile], for which, in data set [1], the EC50 amounted to 17.9 ± 8.16 µM. In data set [3], this molecule gave a CC50 of 60 µM.
